Data set [1] relates to PC3 human prostate adenocarcinoma cells. Nature of the data set: PC3 cell viability / proliferation assay (MTT). In kind it is cell-based. Conditions: PC-3, 72 hours incubation. The procedure: PC3 cells were plated onto 96 well plate (5×10^3 cells/well) in DMEM supplemented with 5% FBS and incubated for 24 h (37° C.; 5% CO2). […] Following incubation, PC3 cells were counted by MTT.

Data set [2] in a line: Pharmacokinetic studies in mice. In kind it is in vivo, female Balb/C mice. The protocol:
The mice were randomly divided in three groups of 10 animals. […] To 50 μL of plasma, 350 μL of CH3CN was added for protein precipitation and the resulting mixture was centrifuged at 20,000 g for 5 minutes. A 300 μL aliquot of the supernatant was collected and freeze-dried. The residue was dissolved in 50 μL of CH3OH and analyzed by RP-HPLC under the condition reported hereinabove.

Data set [3] deals with 4T1-mCherry murine mammary adenocarcinoma in the tibia. In kind it is in vivo, Balb/c female mice. Conditions: 4T1-mCherry tumors in the tibia.
Data set [4] concerns 4T1-mCherry tumors in the tibia. Put plainly: Microvessel density (CD34 staining), 4T1-mCherry model. In kind it is in vivo, Balb/c female mice. Conditions: compared to saline-treated control group.
Description: Immunohistochemistry of tumors in the tibia was performed using samples fixed with 4% paraformaldehyde, following decalcification in EDTA and paraffin embedding by the standard procedure. Paraffin sections of 4 μm were de-paraffinized, rehydrated, and stained by hematoxylin and eosin (H&E). For CD34 staining, slides were deparaffinized and pre-treated with 10 mM citrate buffer, pH=6.0, for 20 minutes in a steam pressure cooker (Decloaking Chamber, BioCare Medical, Walnut Creek, Calif.).
All further steps were performed at room temperature in a hydrated chamber. Slides were covered with Peroxidase Block (Merck, Germany) for 10 minutes to quench endogenous peroxidase activity, followed by incubation with 2% of horse serum in 50 mM Tris-HCl, pH 7.4, for 30 minutes to block non-specific binding sites. Primary rat anti-murine CD34 antibody (MEC 14.7 1:50 dilution; Abcam, Cambridge, Mass.) was applied in 1% rabbit serum albumin in Tris-HCl, pH 7.4 at 4° overnight. Slides were washed in 50 mM TrisHCl, pH 7.4 and rabbit anti-rat antibody (1:750 dilution; Vector Laboratories, Calif., USA) was applied for 30 minutes. Following further washing, immunoperoxidase staining was developed using HistoMark TrueBlue peroxidase system (KPL, USA) per the manufacturer instructions and counterstained with safranin.
The conditions of data set [5]: blood samples on day 11; 15 mg/kg PTX or equivalent.
Description: Samples were counted no longer than five minutes after blood was drawn from mice. Ten μl of blood samples were mixed with 90 μl of track solution (1% acetic acid in DDW), and cells were counted by a Z1 Coulter® Particle Counter (Beckman Coulter™). Data is expressed as mean±s.e.m.
The subject of data set [6] is circulating endothelial cells (CEC) and circulating endothelial progenitor (CEP). Particulars: day 11 of treatment.
Where [7] appears, read: female, mouse, plasma, iv, i.v. 10 mg/Kg PTX equiv., Balb/C mice.

Consider `CC(=O)O[C@H]1C(=O)[C@@]2(C)[C@H]([C@H](OC(=O)c3ccccc3)[C@]3(O)C[C@H](OC(=O)[C@H](O)[C@@H](NC(=O)c4ccccc4)c4ccccc4)C(C)=C1C3(C)C)[C@]1(OC(C)=O)CO[C@@H]1C[C@@H]2O` [PTX, Paclitaxel], for which the IC50 in data set [1] lay in the range of 0.025 to 0.06 µM. In addition, in data set [2] (setting [7]), the Vd was determined as 0.161 ± 0.0021 L and the clearance was determined as 7.4 ± 1.5 mL/min. Moreover, in data set [2] (female, mouse, plasma, iv, i.v. 10 mg/Kg PTX equiv., Balb/C mice, read-out: T1/2β (elimination half-life)), the half-life was 15.1 min. Further, in data set [2] (i.v. 10 mg/Kg PTX equiv., Balb/C mice), the T1/2α stood at 1.3 ± 0.3. The “time at which PTX was not detectable” value in data set [2] (serum PTX by RP-HPLC, i.v. 10 mg/Kg) came to 60 min. Further, in data set [3], the “H&E histology of the tibia” value is “tumor filled the bone marrow space and destroyed both trabecular and cortical bone”. Moreover, the “reduction in micro-vessel density (MVD)” value in data set [4] is listed as “about 50%”. Moreover, the WBC counts result in data set [5] is listed as “significant decrease”. Moreover, the “viable CEP levels” value in data set [6] is “increase”.

A word on the IC50: it is the point on the concentration scale where inhibition reaches its midpoint. Low readings indicate greater potency, high ones weaker potency. What is called Vd is the apparent volume that relates the amount in the body to the concentration in plasma or blood. Broadly, the clearance is the rate of elimination divided by the concentration.

The values are drawn from patent US9283279B2, “Targeted polymeric conjugates and uses thereof” (priority 2011, dated 2016).
